Laboratory results from paper PMC8100298, “Histone deacetylase inhibitor resminostat in combination with sorafenib counteracts platelet-mediated pro-tumoral effects in hepatocellular carcinoma” (Scientific Reports, 2021).
Like-named read-outs stand apart in the source and are kept apart here.

How the values were obtained:
Format in all cases: cell-based
PBMC = assay: Efficacy screening assay; conditions: Non-cancer, healthy donors, 72 h
Procedure: (§1) C. Western blots for acetylated α-Tubulin, total α-Tubulin, p21 and GAPDH (loading control).
(§2) Cells were treated with vehicle control (0.1 % DMSO), 1 µM or 3 µM resminostat for 24 hours. Grouped blots were composed from cropped parts of individual blots for each antibody. Original blots with exposures and indicated cropped areas can be found in the supplementary information.
D. Cell line screen determining the EC50s of resminostat in 74 cell lines representing 14 different ca ncer indications. In addition, peripheral blood mononuclear cells (PBMCs) from healthy donors were tested. Each dot represents an EC50. […]
labelled fluorogenic peptide substrates: fluorogenic peptide from p53 residues 379-382 (RHKK(Ac)AMC) for HDAC1, 2, 3, 6, 10, 11; fluorogenic HDAC Class IIa Substrate (Trifluoro acetyl Lysine, Ac-LGK(TFA)-AMC) for HDAC 4, 5, 7, 9; and fluorogenic peptide from p53 residues 379-382 (RHK(Ac)K(Ac)AMC) for HDAC8. […] In a second step, the deacetylated products were digested by the addition of developer for 1 h at 30°C to produce the fluorescent signal proportional to the amount of deacetylated substrates and the fluorescence was measured using an Envision plate reader at 355 nm (excitation) and 460 nm (emission). A kinetic measurement was performed for ~1 h with 5 min intervals and d ata from the final time point were analysed. […]

HCC cells = assay: Western blots for acetylated α-Tubulin and p21; conditions: 1 µM or 3 µM, 24 hours (Fig. S1C)
Procedure: as §1, §2
D. Cell line screen determining the EC50s of resminostat in 74 cell lines representing 14 different ca ncer indications. In addition, peripheral blood mononuclear cells (PBMCs) from healthy donors were tested. Each dot represents an EC50.
(100×, 78440; Thermo Scientific, Massachusetts, US). Following incubation for 1 h at 4°C, […]
The protein concentration of the
Fisher Scientific, Massachusetts, US ). Equal amounts of protein lysates and a pre-stained […]
US) and transferred to PVDF membranes. The membranes were probed using the relevant […]
of the blots to X-ray films. […]
to adjust brightness and contrast across entire images. No other image manipulations were […]
intracellular FACS staining.

ACHN = assay: Efficacy screening assay; conditions: 72 h, kidney
Procedure: (§3) In a two-step reaction, the substrate with the acetylated lysine side chain was incubated for with a sample containing HDAC activity to p roduce the deacetylated products: 1 h at 30°C for HDAC1, 2, 3 and 6; 30 min at RT for HDAC4, 5, 7 and 9; 2 h at 30°C for HDAC8, 10 and […]
(§4) (excitation) and 460 nm (emission). […]
(§5) The experiment was performed by Oncolead GmbH & Co. KG (Karlsfeld , Germany), based on a standardized screening procedure . Cell lines were purchased directly from the ATCC, NCI and DSMZ cell line c ollections. Cells used for the study had undergone less than 20 passages. To ensure the absence of potential contamination and wrong assignment, all cell lines were tested using a whole genome assay (Agilent, USA). All cell lines were grown as recommended by the suppliers and with addition of 100 U/mL penicillin G and 100 µg/mL; streptomycin. Cell growth and treatments were performed in Nunclon D 96 -well plates (NUNC, Germany). The optimal seeding density for each cell line was determined to ensure exponential growth for the duration of the experiment. All cells growing without anti-cancer agents were sub-conﬂuent by the end of the treatment, as determined by visual inspection.
(§6) After an initial 24 h pre-growth period, the compounds were added. The vehicle concentration […]
(§7) was 0.1% DMSO. After incubation at 37°C for 72 h, the culture medium was aspirated, and the cells were precipitated by the addition of 10% trichloroacetic acid (Sigma-Aldrich, Missouri, US). After overnight incubation at 4°C, the plates were washed three times with deionized water. The precipitates were then stained with SRB (0.4% wt/v sulforhodamine B solution in 1% acetic acid, Sigma-Aldrich, Missouri, US). Afterwards, the plates were washed six times with 1% acetic acid to remove unbound stain. After drying the plates at room temperature, the bound SRB was solubilized with 10 mM Tris base and the optical density was measured at 520 nm using a Victor2 plate reader (Perkin Elmer, Germany). Blank OD values were subtracted from mean OD values for each concentration. The nonlinear curve ﬁtting and EC50 calculations were per formed using XLﬁt and algorithm “205” (ID Business […]
(§8) For cell-based and other in vitro assays, data are presented as data mean ± SD of at least […]
(§9) For the orthotopic mouse model, data are presented as mean + SEM. For statistical analysis, one-way ANOVA and multiple comparison (Dunnett) was performed for compound treatments compared to vehicle control. The adjusted p-values with 95% confidence interval were reported as significant. For comparison of EC50 values in Figure 1F, one-way ANOVA with multiple comparison testing (Tukey) was performed. Multiplicity adjusted p -values for the EC50 with sorafenib versus resminostat for each cell line and comparison between cell lines for sorafenib are presented (95% confidence interval for significance testing). For comparison of EC50 data in Figure 2B, one-way ANOVA with multiple comparison testing (Tukey) was performed. Multiplicity adjusted p-values with 95% confidence interval was applied. For the invasion assays in Figure 4, one-way ANOVA with multiple comparison testing (Tukey) was performed. Multiplicity adjusted p-values with 95% confidence interval was applied. The adjusted p-values comparing vehicle control without vs. with platelets and compound

NCIH82 = assay: Efficacy screening assay; conditions: Homo sapiens, NCI-H82, NCIH82, lung, 72 h
Procedure: as §3, §4, §5, §6, §7, §8, §9

[1] = log of EC50, negative, read-out: log(EC50) (converted)

## CN(C)Cc1ccc(S(=O)(=O)n2ccc(/C=C/C(=O)NO)c2)cc1 [resminostat, Resminostat]
PBMC; [1]
  EC50: 8.71 µM
PBMC; read-out: EC50
  EC50: 8.68 µM
HCC cells
  acetylation of α-Tubulin: hyperacetylation
  p21 protein: accumulation
ACHN; Homo sapiens, log of EC50, negative, read-out: log(EC50) (converted)
  EC50: 1950 nM
ACHN; Homo sapiens, read-out: EC50
  EC50: 1950 nM
ACHN; read-out: EC50
  EC50: 1950 nM
NCIH82; [1]
  EC50: 776 nM
NCIH82; read-out: EC50
  EC50: 770 nM
